According to ChEMBL document CHEMBL5126540, “Resveratrol-based compounds and neurodegeneration: Recent insight in multitarget therapy” (Eur J Med Chem, 2022):

Columns and labels:
[1] = target: T1, Amine oxidase [flavin-containing] B (Homo sapiens, UniProt P27338)
T1 sequence (P27338 whole entry): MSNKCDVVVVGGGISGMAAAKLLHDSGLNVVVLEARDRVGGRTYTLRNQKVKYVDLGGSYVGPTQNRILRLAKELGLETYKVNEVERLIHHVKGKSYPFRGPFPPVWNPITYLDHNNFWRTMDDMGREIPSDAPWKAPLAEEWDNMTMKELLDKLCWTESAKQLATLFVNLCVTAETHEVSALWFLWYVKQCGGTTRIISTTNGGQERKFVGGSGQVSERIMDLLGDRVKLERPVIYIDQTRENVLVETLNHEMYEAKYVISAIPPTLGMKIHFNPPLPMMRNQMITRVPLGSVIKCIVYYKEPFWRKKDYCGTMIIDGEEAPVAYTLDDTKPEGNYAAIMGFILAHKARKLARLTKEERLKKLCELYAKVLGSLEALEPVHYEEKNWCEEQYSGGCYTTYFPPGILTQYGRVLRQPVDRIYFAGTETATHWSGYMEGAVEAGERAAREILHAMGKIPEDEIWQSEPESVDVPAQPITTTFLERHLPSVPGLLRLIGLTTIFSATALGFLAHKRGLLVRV
Description: Inhibition of human recombinant MAO-B incubated for 30 mins by fluorescence based assay

[2] = Antioxidant activity assessed as trolox equivalent of ORAC radical scavenging activity by ORAC-FL assay; format: functional
[3] = target: T2, Acetylcholinesterase (Homo sapiens, UniProt P22303); assay: Inhibition of AChE (unknown origin) incubated for 30 mins by Ellman's method
T2 sequence (P22303 whole entry): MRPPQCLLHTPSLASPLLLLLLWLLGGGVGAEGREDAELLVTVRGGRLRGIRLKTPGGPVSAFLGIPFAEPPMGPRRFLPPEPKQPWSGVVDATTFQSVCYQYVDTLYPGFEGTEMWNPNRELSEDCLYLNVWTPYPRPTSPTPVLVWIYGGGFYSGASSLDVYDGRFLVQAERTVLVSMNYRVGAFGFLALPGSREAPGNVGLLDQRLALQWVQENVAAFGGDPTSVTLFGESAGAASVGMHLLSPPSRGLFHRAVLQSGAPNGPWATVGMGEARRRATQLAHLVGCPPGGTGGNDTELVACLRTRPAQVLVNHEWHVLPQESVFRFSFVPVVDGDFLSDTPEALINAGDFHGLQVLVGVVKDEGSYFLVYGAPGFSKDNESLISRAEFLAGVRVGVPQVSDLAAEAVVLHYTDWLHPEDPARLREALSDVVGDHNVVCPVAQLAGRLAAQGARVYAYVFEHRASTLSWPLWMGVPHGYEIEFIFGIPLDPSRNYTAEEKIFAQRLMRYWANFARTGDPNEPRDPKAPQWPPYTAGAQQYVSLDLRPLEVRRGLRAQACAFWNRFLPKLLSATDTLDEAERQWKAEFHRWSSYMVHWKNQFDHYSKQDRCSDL

[4] = target: T3, Polyunsaturated fatty acid 5-lipoxygenase (Homo sapiens, UniProt P09917); assay: Inhibition of human LOX-5 in presence of LOX substrate solution incubated for 10 mins by Varioskan-flash microplate spectrophotometer reader
T3 sequence (P09917 whole entry): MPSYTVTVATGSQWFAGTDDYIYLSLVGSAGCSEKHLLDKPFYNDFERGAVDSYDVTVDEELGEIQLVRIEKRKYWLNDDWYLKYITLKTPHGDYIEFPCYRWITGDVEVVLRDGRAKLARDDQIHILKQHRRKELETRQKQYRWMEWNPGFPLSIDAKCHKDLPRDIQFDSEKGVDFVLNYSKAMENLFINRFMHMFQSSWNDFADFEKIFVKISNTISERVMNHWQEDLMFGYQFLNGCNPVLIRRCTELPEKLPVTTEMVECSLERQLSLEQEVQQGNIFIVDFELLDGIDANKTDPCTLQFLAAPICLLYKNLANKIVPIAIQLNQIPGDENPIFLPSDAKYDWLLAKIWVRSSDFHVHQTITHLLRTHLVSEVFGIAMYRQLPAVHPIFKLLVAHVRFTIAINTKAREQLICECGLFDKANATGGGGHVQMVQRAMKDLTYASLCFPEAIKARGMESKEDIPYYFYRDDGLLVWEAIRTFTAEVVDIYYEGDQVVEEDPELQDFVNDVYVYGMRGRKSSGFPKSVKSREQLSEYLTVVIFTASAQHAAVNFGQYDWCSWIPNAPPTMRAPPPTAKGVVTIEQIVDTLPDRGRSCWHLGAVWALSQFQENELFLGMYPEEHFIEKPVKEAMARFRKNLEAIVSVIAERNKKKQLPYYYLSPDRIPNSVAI

[5] = target: T4, Cholinesterase (Homo sapiens, UniProt P06276)
T4 sequence (P06276 whole entry): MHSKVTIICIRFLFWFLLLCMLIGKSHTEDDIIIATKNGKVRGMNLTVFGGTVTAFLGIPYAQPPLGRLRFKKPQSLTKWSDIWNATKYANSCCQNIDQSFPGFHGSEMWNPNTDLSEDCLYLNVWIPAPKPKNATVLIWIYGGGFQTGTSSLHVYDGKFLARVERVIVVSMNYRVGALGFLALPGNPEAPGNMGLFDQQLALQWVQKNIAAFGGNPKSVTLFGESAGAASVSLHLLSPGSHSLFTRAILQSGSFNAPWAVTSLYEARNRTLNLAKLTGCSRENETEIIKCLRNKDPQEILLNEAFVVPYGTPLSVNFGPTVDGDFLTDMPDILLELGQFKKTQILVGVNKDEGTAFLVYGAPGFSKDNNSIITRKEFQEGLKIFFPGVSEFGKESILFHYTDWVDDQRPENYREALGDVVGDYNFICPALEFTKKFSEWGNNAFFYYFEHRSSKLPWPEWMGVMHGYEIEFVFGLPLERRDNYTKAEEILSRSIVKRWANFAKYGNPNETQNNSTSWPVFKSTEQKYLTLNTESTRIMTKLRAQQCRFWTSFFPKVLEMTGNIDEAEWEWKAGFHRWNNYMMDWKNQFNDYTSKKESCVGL
Description: Inhibition of BChE (unknown origin) incubated for 30 mins by Ellman's method

[6] = target: T2, Acetylcholinesterase; assay: Binding affinity to AChE (unknown origin) assessed as inhibition constant
[7] = Antioxidant activity assessed as ABTS radical scavenging activity; format: functional
[8] = time 30.0 min
[9] = tested on: Liver; assay: tissue or blood; conditions: Canis lupus familiaris
Description: Antioxidant activity assessed as Fe2+/ascorbate-induced MDA level in liver mitochondria (unknown origin) preincubated for 30 mins followed by addition of Fe2+/ascorbate measured after 30 mins

[10] = target: T1, Amine oxidase [flavin-containing] B; assay: Inhibition of human recombinant MAO-B incubated for 15 mins by Amplex red MAO assay
[11] = Antioxidant activity assessed as DPPH radical scavenging activity measured after 20 mins; format: functional
[12] = Antioxidant activity assessed as galvinoxyl radical scavenging activity measured after 20 mins; format: functional
[13] = Antioxidant activity assessed as ABTS radical scavenging activity measured after 6 mins; format: functional
[14] = tested on: PC-12; assay: Neuroprotective activity against H2o2-induced rat PC-12 cells assessed as cell viability preincubated for 2 hrs followed by H2O2 treatment measured after 24 hrs by MTT assay; format: functional; conditions: time 26 hrs
[15] = tested on: C2C12; assay: Cytotoxicity against mouse C2C12 cells incubated for 24 to 48 hrs by MTT assay; format: toxicity, cell-based; conditions: time 24-48 hrs
[16] = target: Carbonic anhydrase 1 (Homo sapiens, UniProt P00915); assay: Binding affinity to carbonic anhydrase 1 (unknown origin) assessed as inhibition constant
Sequence of Carbonic anhydrase 1 (P00915 whole entry): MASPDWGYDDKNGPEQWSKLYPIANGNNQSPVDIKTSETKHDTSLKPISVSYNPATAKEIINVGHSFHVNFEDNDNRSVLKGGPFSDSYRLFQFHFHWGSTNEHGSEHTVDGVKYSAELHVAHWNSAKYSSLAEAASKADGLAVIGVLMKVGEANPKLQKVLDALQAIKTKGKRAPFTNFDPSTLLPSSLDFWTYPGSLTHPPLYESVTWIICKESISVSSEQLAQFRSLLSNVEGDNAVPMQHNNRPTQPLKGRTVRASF

[17] = target: Carbonic anhydrase 2 (Homo sapiens, UniProt P00918)
Description: Binding affinity to carbonic anhydrase 2 (unknown origin) assessed as inhibition constant

[18] = target: Beta-secretase 1 (Homo sapiens, UniProt P56817); assay: Inhibition of human recombinant BACE-1 expressed in baculovirus using Rh-EVNLDAEFK-Quencher as substrate incubated for 60 mins by measuring increase in fluorescence intensity using fluorescence microplate reader
Sequence of Beta-secretase 1 (P56817 whole entry): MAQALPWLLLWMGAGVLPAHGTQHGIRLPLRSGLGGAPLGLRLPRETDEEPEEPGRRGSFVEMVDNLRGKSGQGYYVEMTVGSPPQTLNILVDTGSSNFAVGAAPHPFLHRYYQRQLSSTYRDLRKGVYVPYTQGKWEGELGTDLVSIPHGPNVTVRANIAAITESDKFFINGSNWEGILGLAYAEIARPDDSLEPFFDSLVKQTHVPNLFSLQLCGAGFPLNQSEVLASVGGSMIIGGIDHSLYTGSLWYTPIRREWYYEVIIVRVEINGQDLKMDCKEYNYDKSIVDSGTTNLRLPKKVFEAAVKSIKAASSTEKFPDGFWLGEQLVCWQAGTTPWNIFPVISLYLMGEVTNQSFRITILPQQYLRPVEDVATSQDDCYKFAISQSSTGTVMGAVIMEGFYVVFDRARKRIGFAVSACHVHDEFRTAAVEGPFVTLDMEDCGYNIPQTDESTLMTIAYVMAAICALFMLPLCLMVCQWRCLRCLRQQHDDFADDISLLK

[19] = Antioxidant activity assessed as DPPH radical scavenging activity measured after 45 mins by Varioskan-flash microplate spectrophotometer reader; format: functional
[20] = target: T2, Acetylcholinesterase; assay: Binding affinity to AChE (unknown origin) assessed as inhibition constant using AChI as substrate incubated for 15 mins by Ellman's spectrophotometric method
[21] = target: T2, Acetylcholinesterase; assay: Inhibition of AChE (unknown origin) using ATCI as substrate incubated for 30 mins by Ellman's method
[22] = target: T4, Cholinesterase; assay: Inhibition of BChE (unknown origin) using BTCI as substrate incubated for 30 mins by Ellman's method
[23] = target: T5, Amyloid-beta precursor protein (Homo sapiens, UniProt P05067); assay: Inhibition of Amyloid beta (1 to 42) (unknown origin) self aggregation at 25 uM by ThT-based fluorescence assay relative to control
T5 sequence (P05067 whole entry): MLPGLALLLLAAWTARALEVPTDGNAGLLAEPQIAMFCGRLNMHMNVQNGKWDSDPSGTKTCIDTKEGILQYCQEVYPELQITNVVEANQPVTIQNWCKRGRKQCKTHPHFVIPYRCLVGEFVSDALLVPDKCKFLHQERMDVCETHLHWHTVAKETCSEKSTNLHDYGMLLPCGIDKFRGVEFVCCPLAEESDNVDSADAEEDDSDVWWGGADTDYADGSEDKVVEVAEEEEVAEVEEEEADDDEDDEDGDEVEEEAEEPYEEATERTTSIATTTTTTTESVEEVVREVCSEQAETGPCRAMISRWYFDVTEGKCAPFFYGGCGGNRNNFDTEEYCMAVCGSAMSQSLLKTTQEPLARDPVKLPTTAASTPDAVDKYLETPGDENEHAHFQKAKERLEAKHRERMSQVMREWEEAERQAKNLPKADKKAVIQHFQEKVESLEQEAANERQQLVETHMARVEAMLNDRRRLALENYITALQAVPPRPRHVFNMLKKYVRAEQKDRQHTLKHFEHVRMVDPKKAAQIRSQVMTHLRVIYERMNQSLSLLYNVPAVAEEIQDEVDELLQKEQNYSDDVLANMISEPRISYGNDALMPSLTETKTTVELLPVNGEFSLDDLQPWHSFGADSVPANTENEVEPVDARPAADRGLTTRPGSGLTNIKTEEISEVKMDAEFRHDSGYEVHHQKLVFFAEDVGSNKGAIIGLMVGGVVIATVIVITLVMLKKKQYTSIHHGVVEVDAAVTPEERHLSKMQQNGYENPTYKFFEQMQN

[24] = Antioxidant activity assessed as DPPH radical scavenging activity measured after 15 mins; format: functional
[25] = target: T5, Amyloid-beta precursor protein; assay: Inhibition of Amyloid beta (1 to 42) (unknown origin) self aggregation at 25 uM incubated for 24 hrs by ThT-based fluorescence assay relative to control
[26] = Permeability of the compound across blood brain barrier measured after 18 hrs by parallel artificial membrane permeation assay; format: ADME; conditions: PAMPA, read-out: permeability
[27] = target: Acetylcholinesterase (Electrophorus electricus, UniProt O42275); assay: Inhibition of electric eel AChE measured after 2 mins by Ellman's method
Sequence of Acetylcholinesterase (Electrophorus electricus, UniProt O42275) (O42275 whole entry): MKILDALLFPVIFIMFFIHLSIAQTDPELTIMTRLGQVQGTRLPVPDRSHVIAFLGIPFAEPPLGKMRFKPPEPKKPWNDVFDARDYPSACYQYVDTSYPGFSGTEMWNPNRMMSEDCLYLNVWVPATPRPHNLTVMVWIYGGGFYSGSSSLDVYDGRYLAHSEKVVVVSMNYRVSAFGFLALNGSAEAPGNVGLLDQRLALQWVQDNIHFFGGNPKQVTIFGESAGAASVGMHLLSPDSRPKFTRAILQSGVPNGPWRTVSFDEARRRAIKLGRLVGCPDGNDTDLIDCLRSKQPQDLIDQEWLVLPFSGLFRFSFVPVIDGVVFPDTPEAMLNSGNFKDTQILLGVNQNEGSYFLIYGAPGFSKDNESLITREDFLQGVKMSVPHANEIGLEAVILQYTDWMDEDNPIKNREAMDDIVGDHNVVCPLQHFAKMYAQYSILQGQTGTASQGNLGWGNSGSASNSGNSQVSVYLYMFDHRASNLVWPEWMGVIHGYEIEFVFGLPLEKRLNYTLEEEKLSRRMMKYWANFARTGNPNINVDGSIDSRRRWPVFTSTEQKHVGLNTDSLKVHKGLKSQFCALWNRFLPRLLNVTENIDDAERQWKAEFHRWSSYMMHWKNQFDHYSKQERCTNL

[28] = target: T5, Amyloid-beta precursor protein; assay: Inhibition of HFIP-treated Amyloid beta (1 to 42) (unknown origin) self aggregation at 20 uM incubated for 46 to 48 hrs by fluorescence based assay relative to control; conditions: time 46-48 hrs
[29] = target: T5, Amyloid-beta precursor protein
[30] = target: T6, Amine oxidase [flavin-containing] A (Homo sapiens, UniProt P21397)
T6 sequence (P21397 whole entry): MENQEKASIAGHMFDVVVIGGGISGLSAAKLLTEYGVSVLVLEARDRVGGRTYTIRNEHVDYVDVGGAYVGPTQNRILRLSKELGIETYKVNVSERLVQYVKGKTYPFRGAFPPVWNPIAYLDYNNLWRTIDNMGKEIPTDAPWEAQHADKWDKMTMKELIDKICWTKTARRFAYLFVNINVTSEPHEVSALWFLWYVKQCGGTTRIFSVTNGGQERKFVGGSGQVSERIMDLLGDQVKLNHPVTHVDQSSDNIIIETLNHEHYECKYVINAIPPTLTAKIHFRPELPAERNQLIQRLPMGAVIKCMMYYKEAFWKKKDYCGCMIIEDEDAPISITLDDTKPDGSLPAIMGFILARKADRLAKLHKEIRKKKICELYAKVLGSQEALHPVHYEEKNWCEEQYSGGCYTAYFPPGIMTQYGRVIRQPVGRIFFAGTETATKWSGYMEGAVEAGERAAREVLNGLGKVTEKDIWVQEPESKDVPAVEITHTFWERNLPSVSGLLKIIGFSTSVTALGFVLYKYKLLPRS
Description: Inhibition of human recombinant MAO-A incubated for 15 mins by Amplex red MAO assay

Question: For `Cc1ncc(/C=C/c2ccc(CN3CCCCC3)c(O)c2)c2c1OC(C)(C)OC2`, which IC50 [1] is on record?
Answer: 1500 nM

Question: What about the Activity [2] of the same molecule?
Answer: 1.52 µM

Question: For `COc1cc(/C=C/c2cc(=O)oc3c2ccc2oc(-c4ccccc4)cc23)cc(OC)c1`, which IC50 [3] is on record?
Answer: 1800 nM

Question: What about the IC50 [4] of the same molecule?
Answer: 13900 nM

Question: What about the IC50 [5] of the same molecule?
Answer: 3500 nM

Question: Which results are given for `COc1ccc(-c2cc3c(ccc4c(/C=C/c5cc(OC)cc(OC)c5)cc(=O)oc43)o2)cc1`?
Answer: IC50 [3]: 1800 nM; IC50 [4]: 13900 nM; IC50 [5]: 3500 nM

Question: What does the source list for `NS(=O)(=O)c1ccc(NCc2cccc(Br)c2O)cc1`?
Answer: Ki [6]: 77.7 nM; Activity [7]: 74.5%; Activity [8]: 4.2%

Question: Which results are given for `Cc1ncc(/C=C/c2ccc(CN3CCCCC3)c(O)c2)c(CO)c1O`?
Answer: IC50 [1]: 2110 nM; Activity [2]: 1.52 µM

Question: With `CCc1nc(/C=C/c2ccc(O)c(O)c2)ccc1O` as the molecule, how does the EC50 [9] read?
Answer: 2430 nM

Question: Which IC50 [10] does the source give for `Oc1ccc(/C=C/c2cc(O)cc(O)c2)cc1` [RESVERATROL] here?
Answer: 31800 nM

Question: And the RC50 [11]?
Answer: 26.4 µmol/mL

Question: What about the RC50 [12] of the same molecule?
Answer: 72.7 µmol/mL

Question: And the RC50 [13]?
Answer: 1.43 µmol/mL

Question: What about the Activity [14] of the same molecule?
Answer: 81.23%

Question: And the Activity [15]?
Answer: 110%

Question: What about the EC50 [9] of the same molecule?
Answer: 7440 nM

Question: For `NS(=O)(=O)c1ccc(/N=C/c2cc(Br)cc(Cl)c2O)cc1`, which Ki [16] is on record?
Answer: 32.1 nM

Question: And the Ki [6]?
Answer: 21 nM

Question: What about the Ki [17] of the same molecule?
Answer: 16 nM

Question: What does the source list for `COc1cc(/C=C/c2cc(=O)oc3c2ccc2oc(-c4ccc(Cl)cc4)cc23)cc(OC)c1`?
Answer: IC50 [3]: 1800 nM; IC50 [4]: 13900 nM; IC50 [5]: 3500 nM

Question: With `NS(=O)(=O)c1ccc(NCc2cccc(Cl)c2O)cc1` as the molecule, how does the Ki [6] read?
Answer: 21 nM

Question: Which IC50 [3] does the source give for `COc1cc(/C=C/c2cc(=O)oc3c2ccc2oc(-c4cc(OC)cc(OC)c4)cc23)cc(OC)c1` here?
Answer: 2800 nM

Question: And the IC50 [18]?
Answer: 15300 nM

Question: What about the IC50 [4] of the same molecule?
Answer: 13900 nM

Question: And the Activity [19]?
Answer: 6.8 µM

Question: What about the IC50 [5] of the same molecule?
Answer: 6300 nM

Question: Which Ki [20] does the source give for `NS(=O)(=O)c1ccc(/N=C/c2cc(Br)cc(Br)c2O)cc1` here?
Answer: 2540 nM

Question: What about the Ki [16] of the same molecule?
Answer: 32.1 nM

Question: And the Ki [6]?
Answer: 21 nM

Question: With `COc1cc(/C=C/c2cc(=O)oc3c2ccc2oc(-c4ccc(F)cc4)cc23)cc(OC)c1` as the molecule, how does the IC50 [3] read?
Answer: 1800 nM

Question: What about the IC50 [4] of the same molecule?
Answer: 13900 nM

Question: And the IC50 [5]?
Answer: 3500 nM

Question: For `Cc1ncc(/C=C/c2ccc(CN3CCOCC3)c(O)c2)c(CO)c1O`, which Activity [2] is on record?
Answer: 1.52 µM

Question: Which IC50 [21] does the source give for `CCn1c2ccccc2c2cc(/C=C/c3ccc(NC(=S)NCCN4CCCC4)cc3)ccc21` here?
Answer: 2640 nM

Question: And the IC50 [22]?
Answer: 1290 nM

Question: What about the inhibition [23] of the same molecule?
Answer: 51.3%

Question: What about the Activity [24] of the same molecule?
Answer: 86.1 µM

Question: For `Oc1ccc(/N=C/c2ccc(O)c(O)c2O)cc1`, which RC50 [11] is on record?
Answer: 8.77 µmol/mL

Question: What about the RC50 [12] of the same molecule?
Answer: 15.4 µmol/mL

Question: What about the RC50 [13] of the same molecule?
Answer: 1.98 µmol/mL

Question: For `Oc1ccc(/C=C/c2ccc(C(F)(F)F)cc2)cc1Cl`, which Activity [15] is on record?
Answer: 150%

Question: For `COc1cc(/C=C/c2cc(=O)oc3c2ccc2oc(-c4cccc(Cl)c4)cc23)cc(OC)c1`, which IC50 [3] is on record?
Answer: 1800 nM

Question: And the IC50 [4]?
Answer: 13900 nM

Question: What about the IC50 [5] of the same molecule?
Answer: 3500 nM

Question: With `COc1cc(/C=C/c2cc(=O)oc3c2ccc2oc(-c4cccc(F)c4)cc23)cc(OC)c1` as the molecule, how does the IC50 [3] read?
Answer: 1800 nM

Question: What about the IC50 [4] of the same molecule?
Answer: 13900 nM

Question: And the IC50 [5]?
Answer: 3500 nM

Question: What does the source list for `COc1cc(/C=C/c2cc(=O)oc3c2ccc2oc(-c4ccc(C)cc4)cc23)cc(OC)c1`?
Answer: IC50 [3]: 1800 nM; IC50 [4]: 13900 nM; IC50 [5]: 3500 nM

Question: Which inhibition [25] does the source give for `CCN(CC)C[C@@H](O)COc1ccc(/C=C/c2cc(OC)cc(OC)c2)cc1` here?
Answer: 40.2%

Question: And the Papp at 18 h [26]?
Answer: 8.12 ×10⁻⁶ cm/s

Question: What about the IC50 [27] of the same molecule?
Answer: 24000 nM

Question: And the Activity [14]?
Answer: 74.9%

Question: With `Clc1ccc(/C=N/c2ccc3cn[nH]c3c2)cc1Cl` as the molecule, how does the IC50 [10] read?
Answer: 1140 nM

Question: What about the inhibition [28] of the same molecule?
Answer: 58.9%

Question: And the IC50 [29]?
Answer: 19500 nM

Question: What about the IC50 [30] of the same molecule?
Answer: 2600 nM
